The structures appear in SMILES notation. Where two headings read alike, the source gives them in different places. Bounds are passed on as bounds.

This is an account of results in patent publication US20220204510A1, “2,3-DIHYDRO-1H-PYRROLIZINE-7-FORMAMIDE DERIVATIVE AND APPLICATION THEREOF” (CHIA TAI TIANQING PHARMACEUTICAL GROUP CO., LTD., priority 2018, published 2022).

In one data set the test system is hepatitis B virus. In words: In vivo efficacy in the HDI/HBV mouse model. As to conditions: HDI/HBV mice. An excerpt: Experimental objective: to assay the efficacy of the compound against hepatitis B virus in mice through the HDI/HBV mouse model.
Preparation of compound: the solvent was an aqueous solution containing 10% polyethylene glycol-15 hydroxystearate; a certain amount of the test compounds 18 and 25 were separately dissolved in an aqueous solution containing 10% polyethylene glycol-15 hydroxystearate, and the mixtures were vortexed and sonicated to prepare uniform suspensions. The suspensions were stored at 4° C. for later use.
High pressure injection of the HBV plasmid DNA solution via the tail vein of mice: the day of plasmid injection was day 0, the day after injection was day 1, and so on. On day 0, all mice were injected with normal saline containing 10 μg of plasmid DNA via their tail veins at a dose of 8% of body weight, and the injection was completed within 5 s.
Administration: all mice were administered intragastrically twice a day (8/16 h interval) on day 1-6 and once on day 7. All mice were euthanized in the afternoon on day 7. The body weight of the mice, which was monitored every day, remained stable throughout the experiment.
Sample collection: blood was collected from the submandibular vein 4 h after the first administration in the morning on days 1, 3, and 5. All blood samples were collected in K2-EDTA anticoagulation tubes, and centrifuged for 10 min at 4° C., 7000 g to prepare about 40 μL of plasma. All mice were euthanized by CO2 four hours after administration in the morning on day 7. Blood was collected from the heart, and the plasma preparation method was the same as above. Two liver tissues were collected with 70-100 mg each, and quick-frozen by liquid nitrogen. After all samples were collected, they were stored in a −80° C. refrigerator for HBV DNA content detection.
Sample analysis: all plasma samples and liver samples were detected for HBV DNA by qPCR.

The nature of data set [1]: Metabolic stability in liver microsomes. The format is in vitro ADME. As to conditions: for half-life at 1 μM: 1 μM compound, 0.5 mg/mL; for microsomal CLint at 1 μM: read-out: CLint(mic). The method, then:
Experimental objective: to evaluate the metabolic stability of test compounds 18 and 25 in liver microsomes of rats, beagle dogs and cynomolgus monkeys
Experimental procedures: first, the test compound (10 mM) was subjected to a two-step dilution, where the compound was diluted to an intermediate concentration of 100 μM with 100% methanol, and the working solution was diluted to 10 μM with a potassium phosphate buffer; eight 96-well incubation plates were prepared, and named T0, T5, T10, T20, T30, T60, Blank and NCF60, respectively; the reaction time points corresponding to the first 6 incubation plates were 0, 5, 10, 20, 30 and 60 min, respectively; for the Blank plate, neither the test compound nor a control compound was added, and for the NCF60 plate, potassium phosphate buffer was used in an incubation of 60 min in place of a NADPH regeneration system solution; 10 μL of the test compound working solution and 80 μL of the microsome working solution (liver microsome protein concentration was 0.625 mg/mL) were added to the T0, T5, T10, T20, T30, T60 and NCF60 plates, while only the microsome working solution was added to the Blank plate, and all the incubation plates were then placed in a 37° C. water bath for pre-incubation for about 10 min; after the pre-incubation, 10 μL of a NADPH regeneration system working solution was added into each sample well of all the plates except the NCF60 plate and T0 plate to start the reaction, and 10 μL of potassium phosphate buffer was added to each well of the NCF60 plate; therefore, in the test compound or control compound samples, the final reaction concentrations of the compound, testosterone, diclofenac and propafenone were 1 μM, the concentration of the liver microsomes was 0.5 mg/mL, and the final concentrations of DMSO and acetonitrile in the reaction system were 0.01% (v/v) and 0.99% (v/v), respectively; after incubation for an appropriate time (such as 5, 10, 20, 30, and 60 min), 300 μL of a stop solution (acetonitrile solution containing 100 ng/mL tolbutamide and 100 ng/mL labetalol) was added to each sample well to stop the reaction; 300 μL of the stop solution and then 10 μL of the NADPH working solution were added to the T0 plate, all the sample plates were shaken and centrifuged in a centrifuge (3220×g) for 20 min, and then 100 μL of supernatant was taken from each well and diluted with 300 μL of pure water for liquid chromatography-tandem mass spectrometry analysis.
Background: Microsomes from liver hold many membrane-bound enzymes, among them those of drug oxidation.

Data set [2] is described as follows: Pharmacokinetic study in Balb/c mice by oral administration and intravenous injection. The class given is in vivo. As to conditions: mouse, plasma, Balb/c female mice; for bioavailability / AUC / Cmax / Tmax: 3 mg/kg; for bioavailability: PO (3 mpk) vs IV (1 mg/kg), read-out: Bioavailability F; for AUC / Cmax / Tmax: PO (3 mpk); for AUC: read-out: Area under the plasma concentration-time curve AUC; for Cmax: read-out: Peak concentration Cmax; for Tmax: read-out: Peak time Tmax; for Vd / AUC(0-t) / clearance / half-life: IV (1 mg/kg); for Vd: read-out: Apparent volume of distribution Vdss; for AUC(0-t): read-out: Area under the plasma concentration-time curve AUC0-24 h; for clearance: read-out: Clearance CL; for half-life: read-out: Half-life T1/2 (converted). The method, then: Pharmacokinetic study of the test compound in Balb/c mice by oral administration and intravenous injection: The test compound was mixed with a solution containing dimethyl sulfoxide (10%), polyethylene glycol 400 (60%) and water (30%), and the mixture was vortexed and sonicated to prepare a 0.2 mg/mL clear solution, which was filtered through a millipore filter for later use. Balb/c female mice aged 7 to 10 weeks were intravenously injected with the candidate compound solution at a dose of 1 mg/kg. The test compound was mixed with an aqueous solution containing 10% polyoxyethylene stearate, and the mixture was vortexed and sonicated to prepare a 0.3 mg/mL clear solution for later use. Balb/c female mice aged 7 to 10 weeks were orally administered with the candidate compound solution at a dose of 3 mg/kg. Whole-blood was collected and plasma was prepared. Drug concentration was analyzed by LC-MS/MS and pharmacokinetic parameters were calculated with Phoenix WinNonlin software.

The mark [3] stands for this setting: 30 mg/kg intragastrically twice a day.
The mark [4] stands for this setting: Sprague-Dawley (SD), rat, SD rats liver microsomes.
Setting [5] is: cynomolgus monkey, Cynomolgus monkeys liver microsomes.
The mark [6] stands for this setting: dog, Beagle dogs liver microsomes.
[7] abbreviates: 10 mg/kg intragastrically twice a day.

For the compound `C[C@]1(NC(=O)C(=O)c2c(Cl)c(C(=O)Nc3ccc(F)c(F)c3)c3n2CCC3)CC[C@H](CC(=O)O)CC1` [Compound 18], in the data set on hepatitis B virus (setting [3]), the “HBV-DNA reduction Liver (day 7)” value is on record as 1.99 Δ Log10 copies/100 ng and the “HBV-DNA reduction Plasma (day 5)” value is on record as 2.84 Δ Log10 copies/μL. In addition, in data set [1] (setting [4]), the CLint scaled at 1 μM was less than 17.3 mL/min/kg, the half-life at 1 μM is more than 2.42 h and the microsomal CLint at 1 μM was less than 9.6 µL/min/mg. In data set [1] (setting [5]), the CLint scaled at 1 μM was less than 13 mL/min/kg, the half-life at 1 μM is more than 2.42 h and the microsomal CLint at 1 μM is less than 9.6 µL/min/mg. Also, in data set [1] (setting [6]), the CLint scaled at 1 μM is less than 13.8 mL/min/kg, the half-life at 1 μM was more than 2.42 h and the microsomal CLint at 1 μM was less than 9.6 µL/min/mg. Further, in data set [2], the bioavailability is 271%, the AUC was determined as 5.02 µM·h, the Cmax amounted to 1460 nM and the Tmax came out at 0.5 h. Moreover, in data set [2], the Vd was determined as 8.8 L/kg, the AUC(0-t) was determined as 0.617 µM·h, the clearance amounted to 50.1 mL/min/kg and the half-life was 2.8 h.

In the case of `C[C@]1(NC(=O)C(=O)c2c(Cl)c(C(=O)Nc3cc(F)c(F)c(F)c3)c3n2CCC3)CC[C@H](CC(=O)O)CC1` [Compound 25], in the data set with hepatitis B virus (setting [7]), the “HBV-DNA reduction Liver (day 7)” value is on record as 0.94 Δ Log10 copies/100 ng and the “HBV-DNA reduction Plasma (day 5)” value is 2.0 Δ Log10 copies/μL. In the data set on hepatitis B virus (setting [3]), the “HBV-DNA reduction Liver (day 7)” value is 2.36 Δ Log10 copies/100 ng and the “HBV-DNA reduction Plasma (day 5)” value was 3.57 Δ Log10 copies/μL. In addition, in data set [1] (setting [4]), the intrinsic clearance (CLint scaled) at 1 μM was less than 17.3 mL/min/kg, the half-life at 1 μM was more than 2.42 h and the microsomal CLint at 1 μM was less than 9.6 µL/min/mg. In addition, in data set [1] (setting [5]), the CLint scaled at 1 μM was less than 13 mL/min/kg, the half-life at 1 μM is more than 2.42 h and the microsomal CLint at 1 μM was less than 9.6 µL/min/mg. Also, in data set [1] (setting [6]), the intrinsic metabolic clearance (CLint scaled) at 1 μM was less than 13.8 mL/min/kg, the half-life at 1 μM was more than 2.42 h and the microsomal CLint at 1 μM is less than 9.6 µL/min/mg. Further, in data set [2], the bioavailability was 51%, the AUC came out at 2.27 µM·h, the Cmax is 1480 nM and the time to peak (Tmax) was determined as 0.5 h. In data set [2], the Vd was 3.1 L/kg, the AUC(0-t) came out at 1.49 µM·h, the clearance amounted to 20 mL/min/kg and the half-life was 1.95 h.

Usually CLint scaled stands for a measure of how fast metabolising enzymes remove a compound, apart from limits set by blood flow. A high value points to rapid turnover. Usually Tmax stands for the time from dosing to the highest level.
